In US10077261B2, “Imidazolin-5-one derivative useful as FASN inhibitors for the treatment of cancer” (Janssen Pharmaceutica NV, priority 2012, dated 2018):

Assays:
[1] = system: A2780 ovarian cells; test: A2780 ovarian cell proliferation assay in lipid reduced medium, with palmitate (MTT); format: cell-based; details: Homo sapiens, A2780, 96 h; read-out: pIC50 A2780 Ovarian Cell, With Palmitate (converted)
Outline: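 Seeded cells were switched next day to lipid-reduced serum, exposed to compound and 25 μM palmitate complexed with fatty-acid-free BSA, and incubated 96 h. Proliferation was then determined by MTT absorbance at 544 nm, with a best-fit curve of signal against concentration.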

[2] = biological target: Fatty Acid Synthase Keto-reductase Domain (FASN KR) (Homo sapiens, UniProt P49327); test: Fatty Acid Synthase keto-reductase domain (FASN KR) inhibition, NADPH oxidation at 340 nm
Fatty Acid Synthase Keto-reductase Domain (FASN KR), sequence (P49327 whole entry, the tested form may be a part): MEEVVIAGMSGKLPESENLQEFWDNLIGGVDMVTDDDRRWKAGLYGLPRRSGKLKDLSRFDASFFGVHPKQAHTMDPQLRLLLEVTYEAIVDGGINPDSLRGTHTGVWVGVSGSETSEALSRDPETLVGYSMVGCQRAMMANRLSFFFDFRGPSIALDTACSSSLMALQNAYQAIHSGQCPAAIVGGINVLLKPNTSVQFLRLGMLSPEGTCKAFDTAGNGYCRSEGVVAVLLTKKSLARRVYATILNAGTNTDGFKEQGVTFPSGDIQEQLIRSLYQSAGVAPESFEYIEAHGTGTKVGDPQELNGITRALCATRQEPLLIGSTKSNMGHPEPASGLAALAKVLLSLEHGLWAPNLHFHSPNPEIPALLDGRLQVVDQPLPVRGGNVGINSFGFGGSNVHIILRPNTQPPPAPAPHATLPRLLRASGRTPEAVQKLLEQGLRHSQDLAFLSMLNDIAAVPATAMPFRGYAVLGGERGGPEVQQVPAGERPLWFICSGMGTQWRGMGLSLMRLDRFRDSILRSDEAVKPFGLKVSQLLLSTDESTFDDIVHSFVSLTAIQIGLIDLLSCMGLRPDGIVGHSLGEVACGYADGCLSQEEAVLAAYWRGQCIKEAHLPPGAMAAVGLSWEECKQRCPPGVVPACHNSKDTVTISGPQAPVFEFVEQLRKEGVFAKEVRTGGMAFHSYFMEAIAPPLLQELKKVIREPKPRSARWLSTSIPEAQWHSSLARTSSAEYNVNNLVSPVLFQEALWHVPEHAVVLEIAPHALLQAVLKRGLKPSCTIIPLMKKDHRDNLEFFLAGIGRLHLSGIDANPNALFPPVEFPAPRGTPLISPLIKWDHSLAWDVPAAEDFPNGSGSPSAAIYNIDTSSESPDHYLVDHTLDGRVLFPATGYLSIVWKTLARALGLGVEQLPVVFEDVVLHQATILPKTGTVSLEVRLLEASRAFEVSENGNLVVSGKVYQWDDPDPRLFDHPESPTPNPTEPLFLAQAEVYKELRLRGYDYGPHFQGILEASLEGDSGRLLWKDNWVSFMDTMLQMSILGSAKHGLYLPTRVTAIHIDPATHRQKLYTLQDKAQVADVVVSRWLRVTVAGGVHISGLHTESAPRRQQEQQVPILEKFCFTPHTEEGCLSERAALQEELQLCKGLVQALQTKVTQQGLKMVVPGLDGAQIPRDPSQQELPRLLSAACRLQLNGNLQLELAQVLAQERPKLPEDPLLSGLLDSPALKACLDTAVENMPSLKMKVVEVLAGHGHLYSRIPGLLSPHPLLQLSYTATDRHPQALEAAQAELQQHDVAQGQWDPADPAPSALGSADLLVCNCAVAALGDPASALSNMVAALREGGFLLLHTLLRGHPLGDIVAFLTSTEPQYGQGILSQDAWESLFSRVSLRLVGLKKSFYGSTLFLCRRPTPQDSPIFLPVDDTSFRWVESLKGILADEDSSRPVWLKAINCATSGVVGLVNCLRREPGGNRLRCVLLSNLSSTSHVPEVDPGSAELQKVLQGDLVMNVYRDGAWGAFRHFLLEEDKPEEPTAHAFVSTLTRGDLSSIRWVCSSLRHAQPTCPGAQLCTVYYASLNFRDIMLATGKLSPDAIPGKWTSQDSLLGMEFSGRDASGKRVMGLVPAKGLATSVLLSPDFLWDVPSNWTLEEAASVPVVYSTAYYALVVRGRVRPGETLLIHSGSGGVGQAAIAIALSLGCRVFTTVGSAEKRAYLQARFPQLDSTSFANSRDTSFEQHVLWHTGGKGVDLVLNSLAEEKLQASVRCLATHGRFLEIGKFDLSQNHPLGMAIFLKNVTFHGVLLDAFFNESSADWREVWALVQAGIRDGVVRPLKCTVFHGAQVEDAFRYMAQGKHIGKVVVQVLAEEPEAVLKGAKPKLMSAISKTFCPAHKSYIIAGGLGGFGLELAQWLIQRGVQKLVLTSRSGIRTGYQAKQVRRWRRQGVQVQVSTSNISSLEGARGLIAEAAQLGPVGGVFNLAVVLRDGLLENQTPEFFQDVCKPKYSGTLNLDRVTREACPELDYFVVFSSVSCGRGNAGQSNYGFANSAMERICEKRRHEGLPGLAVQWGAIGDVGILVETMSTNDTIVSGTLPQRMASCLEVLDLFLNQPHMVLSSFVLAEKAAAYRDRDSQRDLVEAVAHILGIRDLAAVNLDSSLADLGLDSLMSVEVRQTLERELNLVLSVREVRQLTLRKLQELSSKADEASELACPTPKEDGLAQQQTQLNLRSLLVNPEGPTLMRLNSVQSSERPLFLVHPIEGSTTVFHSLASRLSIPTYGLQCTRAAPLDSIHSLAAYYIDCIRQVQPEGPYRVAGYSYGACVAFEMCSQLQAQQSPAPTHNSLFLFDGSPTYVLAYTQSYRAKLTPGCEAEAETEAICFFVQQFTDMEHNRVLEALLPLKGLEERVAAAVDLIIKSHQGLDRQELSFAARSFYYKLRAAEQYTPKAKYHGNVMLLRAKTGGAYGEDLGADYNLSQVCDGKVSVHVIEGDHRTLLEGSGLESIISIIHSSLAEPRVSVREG
Experimental: After 20 minutes incubation at room temperature the plate was measured again (T2).
The decrease in absorbance was calculated as (Absorbance before incubation T1)−(Absorbance following incubation T2).
A plot of Controlmin versus test compound concentration was fitted to a 4-parameter logistic curve using a non-linear least squares regression method.

[3] = system: PC-3M-Luc-C6 prostate cells; test: In vitro PC-3M-Luc-C6 prostate cell proliferation assay in lipid reduced medium; format: cell-based; details: 96 h, read-out: pIC50 PC-3M-Luc-C6 prostate cell (converted)
[4] = system: LNCaP-Vancouver prostate cells; test: In vitro LNCaP Vancouver prostate cell proliferation assay in lipid reduced medium; format: cell-based; details: read-out: pIC50 LNCaP_Vancouver prostate cell (converted)
[5] = biological target: T1, hFASN enzyme (full length) (Homo sapiens, UniProt P49327); test: Fatty Acid Synthase (FASN) inhibition scintillation proximity assay; format: biochemical; details: for inhibition at 10 µM: read-out: Human FASN % inhibition @ 10 μM, 10 μM test compound; for IC50: read-out: Human FASN pIC50 (converted)
T1 construct: 10 μL hFASN enzyme (full length, 300 ng, purified in house); made in house
T1 sequence (P49327 whole entry): as the sequence (P49327 whole entry, the tested form may be a part) above
Outline: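 Full-length in-house purified enzyme (300 ng) was tested in 100 mM KH2PO4 pH 7.5, 1 mM DTT with ³H-acetyl-CoA and malonyl-CoA as substrates; compounds ranged 0.01–30 μM. Reactions were stopped with streptavidin imaging beads, read by LEADseeker at 610 nm, and fitted to a 4-parameter logistic curve.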

[6] = system: A2780 ovarian cells; test: A2780 ovarian cell proliferation assay in lipid reduced medium, without palmitate (MTT); format: cell-based; details: Homo sapiens, A2780, 96 h; read-out: pIC50 A2780 Ovarian Cell, Without Palmitate (converted)

SMILES | IC50 [1] | IC50 [2] | IC50 [3] | IC50 [4] | inhibition at 10 µM [5] | IC50 [5] | IC50 [6]
COCCN1CCC2(CC1)N=C(c1ccc(-c3ccc4c(cnn4C)c3)cc1)N(C[C@@H]1CCN(C(=O)C3CC3)C1)C2=O [compound 750, 3-{[(3R)-1-(Cyclopropylcarbonyl)pyrrolidin-3-yl]methyl}-8-(2-methoxyethyl)-2-[4-(1-methyl-1H-indazol-5-yl)phenyl]-1,3,8-triazaspiro[4.5]dec-1-en-4-one] | > 10000 nM | 1150 nM | 589 nM | 3160 nM | 94% | 309 nM | 676 nM
Cn1nc(N)c2ccc(-c3ccc(C4=NC5(CC5)C(=O)N4C[C@@H]4CCN(C(=O)C5CC5)C4)cc3)cc21 [compound 483, 5-[4-(3-Amino-1-methyl-1H-indazol-6-yl)phenyl]-6-{[(3R)-1-(cyclopropylcarbonyl)pyrrolidin-3-yl]methyl}-4,6-diazaspiro[2.4]hept-4-en-7-one] | > 10000 nM | 174 nM | ~91.2 nM | 380 nM | 95% | 107 nM | 47.9 nM
Cc1cc(-c2ccc3c(c2)cc(C)n3C)ccc1C1=NC2(CC2)C(=O)N1CC1CN(C(=O)C2CC2)C1 [compound 582, 6-{[1-(Cyclopropylcarbonyl)azetidin-3-yl]methyl}-5-[4-(1,2-dimethyl-1H-indol-5-yl)-2-methylphenyl]-4,6-diazaspiro[2.4]hept-4-en-7-one] | > 10000 nM | 1200 nM | 794 nM | 3240 nM | 103% | 324 nM | ~631 nM
Cc1cc2cc(-c3ccc(C4=NC5(CC5)C(=O)N4C[C@@H]4CCN(C(=O)C5CC5)C4)c(F)c3)ccc2o1 [compound 242, (R)-6-((1-(cyclopropanecarbonyl)pyrrolidin-3-yl)methyl)-5-(2-fluoro-4-(2-methylbenzofuran-5-yl)phenyl)-4,6-diazaspiro[2.4]hept-4-en-7-one] | > 10000 nM | 35.5 nM | ~646 nM | ~1580 nM | 103% | 19.1 nM | ~724 nM
O=C(C1CC1)N1CC[C@@H](CN2C(=O)C3(CC3)N=C2c2ccc(-c3nc4ccccc4s3)cc2)C1 [compound 308, (R)-5-(4-(benzo[d]thiazol-2-yl)phenyl)-6-((1-(cyclopropanecarbonyl)pyrrolidin-3-yl)methyl)-4,6-diazaspiro[2.4]hept-4-en-7-one] | > 10000 nM | 129 nM | 100 nM | 479 nM | 102% | 47.9 nM | 145 nM
O=C(C1CC1)N1CC[C@@H](CN2C(=O)C3(CC3)N=C2c2ccc(-c3ccc4cc[nH]c4c3)cc2)C1 [compound 301, (R)-5-(4-(1H-indol-6-yl)phenyl)-6-((1-(cyclopropanecarbonyl)pyrrolidin-3-yl)methyl)-4,6-diazaspiro[2.4]hept-4-en-7-one] | > 10000 nM | 27.5 nM | 12 nM | 275 nM | 99% | 20 nM | 14.8 nM
O=C(C1CC1)N1CC[C@@H](CN2C(=O)C3(CCCC3)N=C2c2ccc(-c3ccc4cccnc4c3)cc2F)C1 [compound 875, (R)-3-((1-(cyclopropanecarbonyl)pyrrolidin-3-yl)methyl)-2-(2-fluoro-4-(quinolin-7-yl)phenyl)-1,3-diazaspiro[4.4]non-1-en-4-one] | > 10000 nM | 28.8 nM | 10.5 nM | 87.1 nM | 104% | 25.1 nM | 13.5 nM
Cc1cc(-c2ccc(-c3cnn(C)c3)cc2)ccc1C1=NC2(CC2)C(=O)N1C[C@@H]1CCN(C(=O)C2(C)CC2)C1 [compound 267] | > 10000 nM | 51.3 nM | ~3.09 nM | 12.3 nM | 97% | 26.3 nM | 1.7 nM
Cc1cc(-c2ccc(-c3ccn(CC(C)C)n3)cc2)ccc1C1=NC2(CC2)C(=O)N1CC1CN(C(=O)C2(C)CC2)C1 [compound 602, 6-({1-[(1-Methylcyclopropyl)carbonyl]azetidin-3-yl}methyl)-5-{3-methyl-4′-[1-(2-methylpropyl)-1H-pyrazol-3-yl]biphenyl-4-yl}-4,6-diazaspiro[2.4]hept-4-en-7-one] | 6170 nM | 1550 nM | 692 nM | 1480 nM | 94% | 324 nM | 380 nM
Cc1cc(-c2ccc3c(cnn3C)c2)ccc1C1=NC2(CC2)C(=O)N1CC1CN(C(=O)C(C)(C)O)C1 [compound 495, 6-{[1-(2-Hydroxy-2-methylpropanoyl)azetidin-3-yl]methyl}-5-[2-methyl-4-(1-methyl-1H-indazol-5-yl)phenyl]-4,6-diazaspiro[2.4]hept-4-en-7-one] | > 10000 nM | 724 nM | ~589 nM | ~3240 nM | 95% | 257 nM | 275 nM
Cc1cc(-c2cccc(NS(=O)(=O)C3CC3)c2)ccc1C1=NC2(CC2)C(=O)N1C[C@@H]1CCN(C(=O)C2CC2)C1 [compound 613, N-[4′-(6-{[(3R)-1-(Cyclopropylcarbonyl)pyrrolidin-3-yl]methyl}-7-oxo-4,6-diazaspiro[2.4]hept-4-en-5-yl)-3′-methylbiphenyl-3-yl]cyclopropanesulfonamide] | > 10000 nM | 229 nM | 97.7 nM | 851 nM | 102% | 115 nM | 107 nM
Cc1cc(-c2ccc3cc(Cl)cnc3c2)ccc1C1=NC2(CC2)C(=O)N1CC1CN(C(=O)C2(C)CC2)C1 [compound 340, 5-(4-(3-chloroquinolin-7-yl)-2-methylphenyl)-6-((1-(1-methylcyclopropanecarbonyl)azetidin-3-yl)methyl)-4,6-diazaspiro[2.4]hept-4-en-7-one] | 6030 nM | 38 nM | 18.2 nM | 93.3 nM | 101% | 28.8 nM | 15.5 nM
O=C(Nc1cccc(-c2ccc(C3=NC4(CC4)C(=O)N3CC3CN(C(=O)C4CC4)C3)c(F)c2)c1)C1CC1 [compound 615, N-[4′-(6-{[1-(Cyclopropylcarbonyl)azetidin-3-yl]methyl}-7-oxo-4,6-diazaspiro[2.4]hept-4-en-5-yl)-3′-fluorobiphenyl-3-yl]cyclopropanecarboxamide] | > 10000 nM | 1050 nM | ~2340 nM | 3240 nM | 98% | 324 nM | 501 nM
Cc1cc2cc(-c3ccc(C4=NC5(CC5)C(=O)N4CC4CN(C(=O)C5CC5)C4)cc3)ccc2s1 [compound 432, 6-{[1-(Cyclopropylcarbonyl)azetidin-3-yl]methyl}-5-[4-(2-methyl-1-benzothiophen-5-yl)phenyl]-4,6-diazaspiro[2.4]hept-4-en-7-one] | > 6170 nM | 447 nM | 871 nM | 2040 nM | 98% | 141 nM | 1510 nM
